Results: PubChem BioAssay AID256 (DTP/NCI, 2004)
“And” between values parts separate entries of the source, which are not always exact repeats. Identical values can stand only once. Inconclusive results and toxic doses are left out. The calls were made as follows: active = survival T/C of 150% or more; inactive = T/C below 125% in these data.

Tested on: CD2F1 mice, L1210 leukemia ip, survival T/C
Experiment: NCI In Vivo Anticancer Drug Screen. Data for tumor model L1210 Leukemia (intraperitoneal) in CD2F1 (CDF1) mice
Conditions: higher = longer survival
Method in brief: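 In this screen, transplantable tumors were grown in mice given either the compound or its vehicle. Results were expressed as the treated measurement relative to the control measurement.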

[1] = endpoint: mean survival time, dose: 75.0 mg/kg/injection, schedule: Q01DX001 (ip), vehicle: saline
[2] = endpoint: mean survival time, dose: 100.0 mg/kg/injection, schedule: Q04DX002 (ip), vehicle: saline with Tween-80
[3] = endpoint: mean survival time, dose: 200.0 mg/kg/injection, schedule: Q04DX002 (ip), vehicle: saline with Tween-80
[4] = endpoint: mean survival time, dose: 100.0 mg/kg/injection, schedule: Q01DX001 (ip), vehicle: saline with Tween-80
[5] = endpoint: mean survival time, dose: 200.0 mg/kg/injection, schedule: Q01DX001 (ip), vehicle: saline with Tween-80
[6] = endpoint: mean survival time, dose: 400.0 mg/kg/injection, schedule: Q01DX001 (ip), vehicle: saline with Tween-80
[7] = endpoint: mean survival time, dose: 150.0 mg/kg/injection, schedule: Q01DX001 (ip), vehicle: saline
[8] = endpoint: mean survival time, dose: 300.0 mg/kg/injection, schedule: Q01DX001 (ip), vehicle: saline
[9] = endpoint: mean survival time, dose: 100.0 mg/kg/injection, schedule: Q01DX009 (ip), vehicle: saline with Tween-80
[10] = endpoint: mean survival time, dose: 100.0 mg/kg/injection, schedule: Q04DX003 (ip), vehicle: saline with Tween-80
[11] = endpoint: mean survival time, dose: 200.0 mg/kg/injection, schedule: Q01DX009 (ip), vehicle: saline with Tween-80
[12] = endpoint: mean survival time, dose: 200.0 mg/kg/injection, schedule: Q04DX003 (ip), vehicle: saline with Tween-80
[13] = endpoint: mean survival time, dose: 400.0 mg/kg/injection, schedule: Q01DX009 (ip), vehicle: saline with Tween-80
[14] = endpoint: mean survival time, dose: 400.0 mg/kg/injection, schedule: Q04DX003 (ip), vehicle: saline with Tween-80
[15] = endpoint: mean survival time, dose: 100.0 mg/kg/injection, schedule: Q01DX001 (ip), vehicle: saline
[16] = endpoint: mean survival time, dose: 200.0 mg/kg/injection, schedule: Q01DX001 (ip), vehicle: saline
[17] = endpoint: mean survival time, dose: 400.0 mg/kg/injection, schedule: Q01DX001 (ip), vehicle: saline
[18] = endpoint: mean survival time, dose: 100.0 mg/kg/injection, schedule: Q01DX009 (ip), vehicle: saline
[19] = endpoint: mean survival time, dose: 100.0 mg/kg/injection, schedule: Q04DX003 (ip), vehicle: saline
[20] = endpoint: mean survival time, dose: 200.0 mg/kg/injection, schedule: Q01DX009 (ip), vehicle: saline
[21] = endpoint: mean survival time, dose: 200.0 mg/kg/injection, schedule: Q04DX003 (ip), vehicle: saline
[22] = endpoint: mean survival time, dose: 400.0 mg/kg/injection, schedule: Q04DX003 (ip), vehicle: saline
[23] = endpoint: mean survival time, dose: 12.5 mg/kg/injection, schedule: Q01DX009 (ip), vehicle: saline with Tween-80
[24] = endpoint: mean survival time, dose: 25.0 mg/kg/injection, schedule: Q01DX009 (ip), vehicle: saline with Tween-80
[25] = endpoint: mean survival time, dose: 50.0 mg/kg/injection, schedule: Q01DX009 (ip), vehicle: saline with Tween-80

Measured: T/C

O=P(O)(c1ccccc1CBr)c1ccccc1CBr
inactive: [1] 90 % of control

CCOC(=O)C(C#N)c1ccccc1 (configuration not stated)
inactive: [2] 94 % of control | [3] 94 % of control

c1ccc(Nc2ccc(N=Nc3nc4ccccc4s3)cc2)cc1
inactive: [4] 93 % of control | [5] 97 % of control | [6] 97 % of control

CCCOC(C(=O)OC1CCN(C)CC1)(c1ccccc1)c1ccccc1
inactive: endpoint: mean survival time, dose: 12.5 mg/kg/injection, schedule: Q04DX003 (ip), vehicle: saline 108 % of control | endpoint: mean survival time, dose: 25.0 mg/kg/injection, schedule: Q04DX003 (ip), vehicle: saline 102 % of control | endpoint: mean survival time, dose: 50.0 mg/kg/injection, schedule: Q04DX003 (ip), vehicle: saline 97 % of control

Nc1nc(N)c2c(n1)CN(c1ccccc1)C2
inactive: [1] 102 % of control | [7] 104 % of control | [8] 106 % of control

Nc1ccc(C(=O)O)c([N+](=O)[O-])c1
inactive: endpoint: mean survival time, dose: 100.0 mg/kg/injection, schedule: Q01DX001 (ip), vehicle: Klucel (hydroxypropylcellulose) (HPC) 96 % of control | endpoint: mean survival time, dose: 200.0 mg/kg/injection, schedule: Q01DX001 (ip), vehicle: Klucel (hydroxypropylcellulose) (HPC) 100 % of control | endpoint: mean survival time, dose: 400.0 mg/kg/injection, schedule: Q01DX001 (ip), vehicle: Klucel (hydroxypropylcellulose) (HPC) 100 % of control

O=C(O)c1ccccc1N=Cc1ccccc1O
inactive: [9] 96 % of control | [10] 103 % of control | [11] 96 % of control | [12] 113 % of control | [13] 102 % of control | [14] 105 % of control

Cc1nc(N)[nH]c(=O)c1CCCNS(=O)(=O)c1ccc(CN)cc1
inactive: [15] 110 % of control | [16] 101 % of control | [17] 100 % of control

O=NN1C(=O)C2CC3CC(C2)CC1C3
inactive: endpoint: mean survival time, dose: 12.5 mg/kg/injection, schedule: Q04DX003 (ip), vehicle: acetone 94 % of control

CNC(C)COc1ccc(O)cc1 (configuration not stated)
inactive: [18] 110 % of control | [19] 108 % of control | [20] 110 % of control | [21] 104 % of control | [22] 114 % of control

O=[N+]([O-])c1cccc(-c2nn[nH]n2)c1
inactive: [4] 93 % of control | [9] 98 % of control | [10] 97 % of control | [5] 104 % of control | [11] 117 % of control | [12] 97 % of control | [6] 88 % of control | [13] 101 % of control | [14] 103 % of control

C=C(Br)CNC(=O)C(C)(C)C
inactive: [23] 96 % of control | [24] 96 % of control | [25] 100 % of control | [9] 93 % of control

Nc1nc2c(ncn2-c2ccc(OCCCc3ccccc3)cc2)c(=O)[nH]1
inactive: [5] 88 % of control | [6] 89 % of control

COc1ccc(OC)c(C(=O)C=C(C(F)(F)F)C(F)(F)F)c1
inactive: endpoint: mean survival time, dose: 100.0 mg/kg/injection, schedule: Q01DX009 (ip), vehicle: other 113 % of control

ONC(CC(O)(NO)NO)c1ccccc1 (configuration not stated)
inactive: [15] 107 % of control | [16] 107 % of control | [17] 108 % of control

O=[As](O)(CC(O)c1ccccc1)c1cccc(Cl)c1 (configuration not stated)
inactive: endpoint: mean survival time, dose: 6.25 mg/kg/injection, schedule: Q04DX003 (ip), vehicle: saline with Tween-80 104 % of control | endpoint: mean survival time, dose: 12.5 mg/kg/injection, schedule: Q04DX003 (ip), vehicle: saline with Tween-80 119 % of control

COc1cc(/C=C/C=C/C(=O)N2CCCCC2)ccc1O
inactive: [23] 97 % of control | [24] 100 % of control | [25] 113 % of control

NC(=O)C(CC(=O)OCc1ccccc1)NC(=O)OCc1ccccc1 (configuration not stated)
inactive: endpoint: mean survival time, dose: 100.0 mg/kg/injection, schedule: Q04DX003 (ip), vehicle: saline + alcohol 97 % of control | endpoint: mean survival time, dose: 200.0 mg/kg/injection, schedule: Q04DX003 (ip), vehicle: saline + alcohol 97 % of control | endpoint: mean survival time, dose: 400.0 mg/kg/injection, schedule: Q04DX003 (ip), vehicle: saline + alcohol 97 % of control

C=CCc1cc(O)c(CC=C)cc1O
inactive: [2] 95 % of control | [3] 95 % of control

CC1(C)Cc2ccccc2O1
inactive: [9] 104 % of control | [11] 91 % of control

O=C(O)CC(=O)O.[NH-]C1CCCCC1[NH-].[Pt+2] (configuration not stated)
inactive: endpoint: mean survival time, dose: 1.25 mg/kg/injection, schedule: Q01DX009 (ip), vehicle: saline sonified 110 % of control | endpoint: mean survival time, dose: 2.5 mg/kg/injection, schedule: Q01DX009 (ip), vehicle: saline sonified 119 % of control | endpoint: mean survival time, dose: 10.0 mg/kg/injection, schedule: Q01DX001 (ip), vehicle: suspension in saline 124 % of control | endpoint: mean survival time, dose: 10.0 mg/kg/injection, schedule: Q01DX009 (oral), vehicle: saline 98 % of control | endpoint: mean survival time, dose: 20.0 mg/kg/injection, schedule: Q01DX001 (oral), vehicle: saline 98 % of control | endpoint: mean survival time, dose: 20.0 mg/kg/injection, schedule: Q01DX009 (oral), vehicle: saline 109 % of control | endpoint: mean survival time, dose: 40.0 mg/kg/injection, schedule: Q01DX001 (oral), vehicle: saline 98 % of control | endpoint: mean survival time, dose: 40.0 mg/kg/injection, schedule: Q01DX009 (oral), vehicle: saline 100 % of control | endpoint: mean survival time, dose: 80.0 mg/kg/injection, schedule: Q01DX001 (oral), vehicle: saline 100 % of control | endpoint: mean survival time, dose: 160.0 mg/kg/injection, schedule: Q01DX001 (oral), vehicle: saline 100 % of control | endpoint: mean survival time, dose: 320.0 mg/kg/injection, schedule: Q01DX001 (oral), vehicle: saline 100 % of control | endpoint: mean survival time, dose: 320.0 mg/kg/injection, schedule: Q01DX009 (oral), vehicle: saline 120 % of control | endpoint: median survival time, dose: 4.0 mg/kg/injection, schedule: Q01DX009 (ip), vehicle: dextrose 110 % of control

CCOC(=O)CC(=O)C(F)(F)F
inactive: [1] 95 % of control | [7] 97 % of control | [8] 101 % of control

CC(=O)Nc1cccc2ccc3c4ccccc4ccc3c12
inactive: [10] 86 % of control | [12] 89 % of control | [14] 98 % of control

O=c1ccn2c(n1)OC1CC2OC1COC(c1ccccc1)(c1ccccc1)c1ccccc1 (configuration not stated)
inactive: endpoint: median survival time, dose: 12.5 mg/kg/injection, schedule: Q01DX005 (ip), vehicle: saline with Tween-80 102 % of control | endpoint: median survival time, dose: 25.0 mg/kg/injection, schedule: Q01DX005 (ip), vehicle: saline with Tween-80 96 % of control | endpoint: median survival time, dose: 50.0 mg/kg/injection, schedule: Q01DX005 (ip), vehicle: saline with Tween-80 95 % of control | endpoint: median survival time, dose: 100.0 mg/kg/injection, schedule: Q01DX005 (ip), vehicle: saline with Tween-80 95 % of control | endpoint: median survival time, dose: 200.0 mg/kg/injection, schedule: Q01DX005 (ip), vehicle: saline with Tween-80 98 % of control

OCC1(O)OCC(O)C(F)C1O (configuration not stated)
inactive: [18] 96 % of control | [19] 88 % of control | [20] 96 % of control | [21] 89 % of control | endpoint: mean survival time, dose: 400.0 mg/kg/injection, schedule: Q01DX009 (ip), vehicle: saline 94 % of control | [22] 91 % of control

COc1cccc2c1C(=N)c1c(O)c3c(c(O)c1C2=O)C[C@@](O)(C(C)=O)C[C@@H]3OC1CC(N)C(O)C(C)O1 (some centres not stated)
inactive: endpoint: mean survival time, dose: 0.5 mg/kg/injection, schedule: Q01DX009 (ip), vehicle: saline 121 % of control and 108 % of control | endpoint: mean survival time, dose: 1.0 mg/kg/injection, schedule: Q01DX009 (ip), vehicle: saline 124 % of control | endpoint: mean survival time, dose: 2.0 mg/kg/injection, schedule: Q01DX009 (ip), vehicle: saline 113 % of control and 122 % of control | endpoint: mean survival time, dose: 4.0 mg/kg/injection, schedule: Q01DX009 (ip), vehicle: saline 114 % of control and 119 % of control | endpoint: mean survival time, dose: 8.0 mg/kg/injection, schedule: Q01DX009 (ip), vehicle: saline 101 % of control

CC(=O)Nc1nc(C)c(CC/C=C/c2ccc([N+](=O)[O-])cc2)c(Cl)n1
inactive: [4] 94 % of control | [5] 89 % of control | [6] 89 % of control

CC(=O)CCCOC(C)=O
inactive: [15] 103 % of control | [16] 100 % of control | [17] 100 % of control

O=C(N/N=C/c1ccc2c(c1)CCC2)c1cccc([N+](=O)[O-])c1
inactive: [10] 91 % of control | [5] 94 % of control | [12] 94 % of control | [6] 101 % of control | [14] 106 % of control
